Measurements from patent publication US7727989B2, “4-benzimidazol-2-yl-pyridazine-3-one-derivatives, production and use thereof in medicaments” (Sanofi-Aventis Deutschland GmbH, priority 2004, dated 2010).

biological target: human recombinant GSK-3β (Homo sapiens, UniProt P49841); experiment: GSK-3β activity, AlphaScreen, primed glycogen synthase substrate peptide; assay type: biochemical; conditions: not given
Procedure: Functional measurements to ascertain IC50 values:
GSK-3β activity is measured using human recombinant GSK-3β and a primed (pre-phosphorylated) substrate peptide (derived from glycogen synthase and containing the phosphorylation sites 3a, b, and c) on the basis of the AlphaScreen technology in 384-well plate format (small volume plate, white, Greiner). […] After adding […] Donor beads (20 μg/ml) and […] antibody (anti-phosphoglycogen synthase 1:2000)-coated Acceptor beads (40 μg/ml) in AlphaScreen detection buffer (20 mM Hepes, pH 7.4, 10 mM MgCl, 40 mM EDTA, 1 mM DTT, 0.1 mg/ml BSA), plates are incubated at room temperature (in the dark) overnight and then placed in a reader (Alphaquest or Fusion) to measure final fluorescence. IC50 values are calculated from the fitted curve corrected for bank values (absence of GSK-3β) and performed in triplicate.

human recombinant GSK-3β, sequence (P49841 whole entry): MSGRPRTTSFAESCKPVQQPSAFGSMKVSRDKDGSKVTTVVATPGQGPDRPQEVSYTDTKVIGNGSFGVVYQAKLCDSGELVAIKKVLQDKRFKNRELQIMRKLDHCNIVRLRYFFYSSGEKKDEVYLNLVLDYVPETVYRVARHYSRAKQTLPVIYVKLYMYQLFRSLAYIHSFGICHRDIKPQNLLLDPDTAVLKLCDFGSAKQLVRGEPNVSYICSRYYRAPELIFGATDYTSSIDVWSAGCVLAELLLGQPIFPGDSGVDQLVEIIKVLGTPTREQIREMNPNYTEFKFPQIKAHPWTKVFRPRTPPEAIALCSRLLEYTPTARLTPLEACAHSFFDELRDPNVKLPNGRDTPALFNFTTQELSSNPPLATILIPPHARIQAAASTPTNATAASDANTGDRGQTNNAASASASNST

IC50 [µM] | Compound
0.157 | Cn1cc(-c2cc(-c3nc4ccccc4[nH]3)c(=O)[nH]n2)ccc1=O [Example 50, 4-(1H-Benzimidazol-2-yl)-6-(1-methyl-6-oxo-1,6-dihydropyridin-3-yl)-2H-pyridazin-3-one]

same assay, conditions: human recombinant GSK-3β 0.18 nM, biot. phospho-glycogen synthase peptide 34 nM, 10 μM ATP, 60 min room temperature, triplicate; read-out: IC50

IC50 [µM] | Compound
0.032 | O=c1[nH]nc(-c2ccncc2)cc1-c1nc2ccncc2[nH]1 [Example 38, 4-(3H-imidazol[4,5-c]pyridin-2-yl)-6-pyridin-4-yl-2H-pyridazin-3-one]
0.007 | CN1CCN(Cc2ccc3nc(-c4cc(-c5ccncc5)n[nH]c4=O)[nH]c3c2)CC1 [Example 42, 4-[6-(4-Methylpiperazin-1-ylmethyl)-1H-benzimidazol-2-yl]-6-pyridin-4-yl-2H-pyridazin-3-one]
0.028 | O=c1[nH]nc(-c2ccsc2)cc1-c1nc2ccccc2[nH]1 [Example 46, 4-(1H-Benzimidazol-2-yl)-6-thiophen-3-yl-2H-pyridazin-3-one]
0.042 | CN1CCN(Cc2ccc3nc(-c4cc(-c5ccccc5)n[nH]c4=O)[nH]c3c2)CC1 [Example 53, 4-[6-(4-Methylpiperazin-1-ylmethyl)-1H-benzimidazol-2-yl]-6-phenyl-2H-pyridazin-3-one]
0.05 | O=c1[nH]nc(-c2ccnc(NC3CC3)n2)cc1-c1nc2ccccc2[nH]1 [Example 58, 4-(1H-Benzimidazol-2-yl)-6-(2-cyclopropylaminopyrimidin-4-yl)-2H-pyridazin-3-one]
0.063 | O=c1[nH]nc(-n2ccnc2)cc1-c1nc2ccccc2[nH]1 [Example 68, 4-(1H-Benzimidazol-2-yl)-6-imidazol-1-yl-2H-pyridazin-3-one]

Further lines, the molecule ahead of its results:

Compound | IC50 [µM]
O=c1[nH]nc(-c2ccncc2)cc1-c1nc2cc(C(F)(F)F)ccc2[nH]1 [Example 6, 4-(6-Tri-fluoromethyl-1H-benzimidazol-2-yl)-6-pyridin-4-yl-2H-pyridazin-3-one] | 0.016
N#Cc1ccc2[nH]c(-c3cc(-c4ccncc4)n[nH]c3=O)nc2c1 [Example 21, 4-(5-Cyano-1H-benzimidazol-2-yl)-6-pyridin-4-yl-2H-pyridazin-3-one] | 0.057
Cc1cc(-c2cc(-c3nc4ccc(C(F)(F)F)cc4[nH]3)c(=O)[nH]n2)cc(C)c1O [Example 25, 6-(4-Hydroxy-3,5-dimethylphenyl)-4-(6-tri-fluoromethyl-1H-benzimidazol-2-yl)-2H-pyridazin-3-one] | 0.056

system: not given; experiment: not given; conditions: not given

melting point | Compound
288 °C | CCCCNc1nccc(-c2cc(-c3nc4ccc(C(F)(F)F)cc4[nH]3)c(=O)[nH]n2)n1 [Example 27, 6-(2-Butylaminopyrimidin-4-yl)-4-(6-tri-fluoromethyl-1H-benzimidazol-2-yl)-2H-pyridazin-3-one]
> 350 °C (dec.) | O=c1[nH]nc(-c2ccncc2)cc1-c1nc2ccccc2[nH]1 [Example 28, 4-(1H-Benzimidazol-2-yl)-6-pyridin-4-yl-2H-pyridazin-3-one]

The remaining lines, values behind:

Compound | melting point
O=c1[nH]nc(-c2ccncc2)cc1-c1nc2cc(Cl)ccc2[nH]1 [Example 5, 4-(6-Chloro-1H-benzimidazol-2-yl)-6-pyridin-4-yl-2H-pyridazin-3-one] | > 300 °C (dec.)
O=c1[nH]nc(-c2ccncc2)cc1-c1nc2cc(C(F)(F)F)ccc2[nH]1 [Example 6, 4-(6-Tri-fluoromethyl-1H-benzimidazol-2-yl)-6-pyridin-4-yl-2H-pyridazin-3-one] | > 300 °C (dec.)
COc1ccc2nc(-c3cc(-c4ccncc4)n[nH]c3=O)[nH]c2c1 [Example 7, 4-(6-Methoxy-1H-benzimidazol-2-yl)-6-pyridin-4-yl-2H-pyridazin-3-one] | > 300 °C (dec.)
O=C(NCCNC1CCCCC1)c1ccc2nc(-c3cc(-c4ccncc4)n[nH]c3=O)[nH]c2c1 [Example 8, 2-(3-Oxo-6-pyridin-4-yl-2,3-dihydropyridazin-4-yl)-1H-benzimidazole-5-carboxylic acid (2-cyclohexylaminoethyl)amide] | 271 °C
CN1CCN(CCCNC(=O)c2ccc3nc(-c4cc(-c5ccncc5)n[nH]c4=O)[nH]c3c2)CC1 [Example 9, 2-(3-Oxo-6-pyridin-4-yl-2,3-dihydropyridazin-4-yl)-1H-benzimidazole-5-carboxylic acid [3-(4-methylpiperazin-1-yl)propyl]amide] | > 300 °C
O=C(NCCCO)c1ccc2nc(-c3cc(-c4ccncc4)n[nH]c3=O)[nH]c2c1 [Example 10, 2-(3-Oxo-6-pyridin-4-yl-2,3-dihydropyridazin-4-yl)-1H-benzimidazole-5-carboxylic acid (3-hydroxypropyl)amide] | > 300 °C (dec.)
Cc1cc(-c2nc3cc(Cl)ccc3[nH]2)c(=O)[nH]n1 [Example 11, 4-(5-Chloro-1H-benzimidazol-2-yl)-6-methyl-2H-pyridazin-3-one] | > 300 °C (dec.)
CNc1nccc(-c2cc(-c3nc4cc(Cl)ccc4[nH]3)c(=O)[nH]n2)n1 [Example 14, 4-(5-Chloro-1H-benzimidazol-2-yl)-6-(2-methylaminopyrimidin-4-yl)-2H-pyridazin-3-one] | > 300 °C (dec.)
Cc1cccc2nc(-c3cc(-c4ccncc4)n[nH]c3=O)[nH]c12 [Example 17, 4-(7-Methyl-1H-benzimidazol-2-yl)-6-pyridin-4-yl-2H-pyridazin-3-one] | > 350 °C (dec.)
Cc1cc2nc(-c3cc(-c4ccncc4)n[nH]c3=O)[nH]c2cc1C [Example 18, 4-(5,6-Dimethyl-1H-benzimidazol-2-yl)-6-pyridin-4-yl-2H-pyridazin-3-one] | > 350 °C (dec.)
CN1CCN(c2ccc3[nH]c(-c4cc(-c5ccncc5)n[nH]c4=O)nc3c2)CC1 [Example 19, 4-[5-(4-Methylpiperazin-1-yl)-1H-benzimidazol-2-yl]-6-pyridin-4-yl-2H-pyridazin-3-one] | > 350 °C (dec.)
O=c1[nH]nc(-c2ccncc2)cc1-c1nc2cc(F)ccc2[nH]1 [Example 20, 4-(5-Fluoro-1H-benzimidazol-2-yl)-6-pyridin-4-yl-2H-pyridazin-3-one] | > 350 °C (dec.)
N#Cc1ccc2[nH]c(-c3cc(-c4ccncc4)n[nH]c3=O)nc2c1 [Example 21, 4-(5-Cyano-1H-benzimidazol-2-yl)-6-pyridin-4-yl-2H-pyridazin-3-one] | > 350 °C (dec.)
O=c1[nH]nc(-c2ccncc2)cc1-c1nc2ccc(Br)cc2[nH]1 [Example 22, 4-(5-Bromo-1H-benzimidazol-2-yl)-6-pyridin-4-yl-2H-pyridazin-3-one] | > 350 °C (dec.)
CCCCNc1nccc(-c2cc(-c3nc4ccc(Cl)cc4[nH]3)c(=O)[nH]n2)n1 [Example 26, 6-(2-Butylaminopyrimidin-4-yl)-4-(6-chloro-1H-benzimidazol-2-yl)-2H-pyridazin-3-one] | 305 °C
